Assay results published in patent publication US20260263448A1, “CONTROLLED RELEASE INJECTABLE CARIPRAZINE FORMULATION” (Richter Gedeon Nyrt., priority 2021, published 2026).
≈ marks a conversion by molar mass, not a printed value. Counter-ions that a name gives are not always drawn. Like-named read-outs stand apart in the source and are kept apart here.

Experiment: Solubility at different pH values (37° C.)
Format: physicochemical
Conditions: for solubility: aqueous buffer, read-out: Solubility (average, mg/ml); for Solubility in the pH-range of human muscle and subcutaneous tissues: pH 6.8-7.5

Row | Compound | solubility (pH = 3, 37° C.) | solubility (pH = 4.4, 37° C.) | solubility (pH = 6.8, 37° C.) | Solubility in the pH-range of human muscle and subcutaneous tissues | Solubility category (USP) (pH = 3, 37° C.) | Solubility category (USP) (pH = 4.4, 37° C.) | Solubility category (USP) (pH = 6.8, 37° C.) | Solubility (average, mg/ml) (pH = 7.4, 37° C.) | Solubility category (USP) (pH = 7.4, 37° C.) | solubility (pH = 4.5, 37° C.) | solubility (pH = 5.5, 37° C.) | solubility (pH = 7.5, 37° C.) | Solubility category (USP) (pH = 4.5, 37° C.) | Solubility category (USP) (pH = 5.5, 37° C.) | Solubility (average, mg/ml) (pH = 6.8, 37° C.) | Solubility category (USP) (pH = 7.5, 37° C.)
1 | CN(C)C(=O)N[C@H]1CC[C@H](CCN2CCN(c3cccc(Cl)c3Cl)CC2)CC1 [Cariprazine base, trans-N-{4-[2-[4-(2,3-dichlorophenyl)-piperazin-1-yl]-ethyl]-cyclohexyl}-N′,N′-dimethylurea] | 0.204 mg/mL (≈ 477 µM) | 0.357 mg/mL (≈ 835 µM) | 0.0007 mg/mL (≈ 1.64 µM) | practically insoluble | Very slightly soluble | Very slightly soluble | Practically insoluble | not detectable | Practically insoluble |  |  |  |  |  |  | 
2 | CN(C)C(=O)N[C@H]1CC[C@H](CCN2CCN(c3cccc(Cl)c3Cl)CC2)CC1 [Cariprazine hydrochloride] | 6 mg/mL |  |  | practically insoluble | Slightly soluble |  | Practically insoluble |  |  | 13.8 mg/mL | 0.27 mg/mL | 0.001 mg/mL | Sparingly soluble | Very slightly soluble | 0.005 mg/mL | Practically insoluble
